Results reported in patent publication US20250000952A1, “POLYPEPTIDE BASED ON RECEPTOR-INTERACTING PROTEIN KINASE-3 METHYLATION MODIFICATION AND APPLICATION THEREOF IN CELL NECROPTOSIS-RELATED DISEASES” (Air Force Medical University of the People's Liberation Army, priority 2023, published 2025).
Entries after “also recorded” stand apart in the source; their conditions may differ.

Experiments:
[1] = tested on: mouse L929 cells; assay: Membrane penetrating experiment (fluorescence microscopy of FITC-labeled polypeptide); type: cell-based; settings: 20 μM polypeptide, 24 hours
Protocol: Under the condition of necroptosis activation, it is observed whether the symmetrical dimethyl modified polypeptide fragment is capable of reducing the necroptosis and protecting cells from death. 20 μM polypeptide is added to mouse L929 cells for 24 hours, and the efficiency of polypeptide entering the target cells is analyzed by fluorescence microscope, with the scale of 275 μm, and the results are shown in FIG. 1A-FIG. 1B.

[2] = tested on: mouse fibroblast L929; assay: Necroptosis stimulation experiment, cell morphology after TNF-α + Z-VAD; type: cell-based; settings: L929, TNF-α (20 ng/mL)+Z-VAD (20 μM), polypeptide 20 μM, compared with TAT-mRIP3
Protocol: The necroptosis induced by TNF-α (20 ng/mL)+Z-VAD (20 μM) is in mouse fibroblast L929, and polypeptide (20 μM) is added to intervene. After 12 hours treatment, the morphological changes of the cell are analyzed: Dimethyl sulfoxide (DMSO) is used as control group); the scale is 20 μm.
After 12 hours, the necroptosis of the cells is stimulated.

[3] = tested on: pRIP1, pRIP3 and pMLKL; assay: Protein detection of necroptosis marker molecules after TNF-α + Z-VAD; type: cell-based, mouse; settings: L929, TNF-α (20 ng/ml)+Z-VAD (20 μM), peptide 10 μM, 20 μM and 50 μM, 12 hours
Protocol: Furthermore, the necroptosis reaction in cells is detected. Mouse fibroblast L929 is treated with the classic cell necroptosis inducer TNF-α (20 ng/ml)+Z-VAD (20 μM), and at the same time, the peptides TAT (20 μM), TAT-mRIP3-WT and TAT-mRIP3-SDMA (10, 20 and 50 μM) are added. Cell samples are collected for protein detection after 12 hours.

[4] = tested on: Prmt5^iIEC-KO mice; assay: Survival (lifetime) analysis of tamoxifen-induced Prmt5 knockout mice; type: in vivo, mouse; settings: tamoxifen 75 mg/kg, polypeptide 10 mg/kg intraperitoneally once a day until death, ** p<0.01
Protocol: Tamoxifen-induced mouse intestinal epithelial cell-specific gene knockout mice (Prmt5^iIEC-KO) are used. Tamoxifen is given (75 mg/kg) to mice at age of 8 weeks to induce Prmt5 gene knockout and cell necroptosis (intraperitoneal injection, once a day, for 5 days). Using Prmt5^iIEC-KO, while tamoxifen is injected to induce Prmt5 gene knockout, mice are injected with different types and concentrations of peptides intraperitoneally, and the survival cycle of mice is analyzed, ** p<0.01. Mice are injected intraperitoneally with 10 mg/kg polypeptide once a day until the mice die.

[5] = tested on: intestinal tissues of Prmt5^iIEC-KO mice; assay: HE histological analysis of mouse intestine; type: in vivo; settings: compared with TAT and unmodified (TAT-mRIP3) polypeptide group

TAT-mRIP3-SDMA: GRKKRRQRRRPQQAQFGRG (SDMA) GWQPFHK; cell-penetrating peptide TAT connected to mouse RIP3 peptide with symmetric di-methylated arginine 479
efficiency of polypeptide entering the target cells (fluorescence intensity) [1]: capable of entering mouse lung fibroblast L929
protection against necroptosis / cell death (cell morphology) [2]: reducing cell death; also recorded: obvious protective effect
expression levels of pRIP1, pRIP3 and pMLKL [3]: decreasing the expression levels; also recorded: lower than control group
lifetime of mice [4]: significantly prolonged
intestinal tissue necrosis and intestinal cavity structure (HE staining) [5]: significant protective effect
